The results in this text go back to ChEMBL document CHEMBL1149957, “MALONIC ACID DERIVATIVES AS SIALYL LEWIS X MIMETICS” (Bioorg Med Chem Lett, 1997).

The subject of test [1] is HL-60. Put plainly: Tested for the inhibition of HL60 cell adhesion to recombinant E-selectin-IgG fusion protein measured by cell culture assay. Type of test: functional, cell-based. The conditions noted are these: Homo sapiens.
For test [2], the system named is HL-60. Put plainly: Tested for the inhibition of HL60 cell adhesion to recombinant P-selectin-IgG fusion protein measured by cell culture assay. The format is functional, cell-based. The settings on record: Homo sapiens.
The subject of test [3] is Rattus norvegicus. Put plainly: Tested for the inhibition of leukocyte adhesion in rat mesenteric venules in vivo at a dose of 10 mg/kg measured by intravital microscopy. Type of test: functional.
For test [4], the system named is Rattus norvegicus. The test can be described thus: Tested for the inhibition of leukocyte adhesion in rat mesenteric venules in vivo at a dose of 3 mg/kg measured by intravital microscopy. The format is functional.
Test [5] relates to Rattus norvegicus. Put plainly: Tested for the inhibition of leukocyte adhesion in rat mesenteric venules in vivo at a dose of 1 mg/kg measured by intravital microscopy. The format is functional.

The structures appear in SMILES notation.

With `CC1OC(OC2CCCCC2OC(=O)NCCCCC(C(=O)O)C(=O)O)C(O)C(O)C1O` (configuration not stated), the figures for the half-inhibitory concentration (IC50) in test [1] and in test [2] were 4 mM and 4.5 mM, respectively.

On to `CC1OC(OC2CCCCC2OCCCCCCCCC(C(=O)O)C(=O)O)C(O)C(O)C1O` (configuration not stated), for which the half-maximal inhibitory concentration (IC50) in test [1] and in test [2] was > 5 mM in each case.

In test [3], `CC1OC(OC2CCCCC2OC(=O)NCCCC(C(=O)O)C(=O)O)C(O)C(O)C1O` (configuration not stated) displayed an inhibition in vivo at 10 mg/kg of 85%. In addition, the IC50 in test [1] amounted to 1 mM; in test [2], 0.7 mM. In test [4], the inhibition in vivo at 3 mg/kg amounted to 44%. The same compound gave an inhibition in vivo at 1 mg/kg in test [5] of 54%.

As for `CC1OC(OC2CCCCC2OC(=O)NCCC(C(=O)O)C(=O)O)C(O)C(O)C1O` (configuration not stated), testing at 10 mg/kg in test [3] gave an inhibition in vivo of 58%. Moreover, the IC50 came out at 3.4 mM in test [1] and 3.5 mM in test [2].

With `CC1OC(OC2CCCCC2OCCCCCCCCCCC(C(=O)O)C(=O)O)C(O)C(O)C1O` (configuration not stated), the IC50 in test [1] and in test [2] was > 5 mM in each case.

As to `CC1OC(OC2CCCCC2OCCCC(C(=O)O)C(=O)O)C(O)C(O)C1O` (configuration not stated), the IC50 in test [1] and in test [2] was > 5 mM in each case.

With `CC1OC(OC2CCCCC2OCCCCCCCC(C(=O)O)C(=O)O)C(O)C(O)C1O` (configuration not stated), the IC50 in test [1] and in test [2] was > 5 mM each time.

Consider `CC1OC(OC2CCCCC2OCCCCC(C(=O)O)C(=O)O)C(O)C(O)C1O` (configuration not stated), for which the IC50 in test [1] and in test [2] was > 5 mM throughout.

Turning to `CC1OC(OC2CCCCC2OCCCCCCC(C(=O)O)C(=O)O)C(O)C(O)C1O` (configuration not stated), the IC50 in test [1] and in test [2] was > 5 mM in each case.

Turning to `CC1OC(OC2CCCCC2OCCCCCC(C(=O)O)C(=O)O)C(O)C(O)C1O` (configuration not stated), the IC50 in test [1] and in test [2] was > 5 mM each time.

As to `CC1OC(OC2C(OCCCCC(C(=O)O)C(=O)O)CCOC2COCCCCc2ccccc2)C(O)C(O)C1O` (configuration not stated), the values for the IC50 in test [1] and in test [2] were 4.8 mM and 3.6 mM, respectively. Besides, the inhibition in vivo at 3 mg/kg in test [4] is 62%.

Regarding `CC1OC(OC2C(OCCCCCC(C(=O)O)C(=O)O)CCOC2COCCCCc2ccccc2)C(O)C(O)C1O` (configuration not stated), the IC50 was found to be 2.6 mM in test [1] and 1.2 mM in test [2]. This compound also displayed an inhibition in vivo at 3 mg/kg in test [4] of 65%.

For `CC(=O)N[C@H]1[C@H]([C@@H](O)[C@@H](O)CO)O[C@@](O[C@@H]2[C@H](O)[C@H](O[C@H]3[C@H](O[C@@H]4O[C@@H](C)[C@@H](O)[C@H](O)[C@@H]4O)[C@H](NC(C)=O)C(O)O[C@H]3CO)O[C@@H](CO)[C@@H]2O)(C(=O)O)C[C@H]1O` (some centres not stated), the 50% inhibitory concentration (IC50) in test [1] was found to be 1.5 mM; in test [2], 3 mM.

Usually IC50 stands for the concentration that inhibits the measured activity by half. Broadly, the inhibition in vivo is how much of the control response was suppressed. Read a high inhibition in vivo as a response far below the control.
